From patent publication US20140315234A1, “METHOD TO GENERATE DOPAMINERGIC NEURONS FROM MOUSE AND HUMAN CELLS” (priority 2010, published 2014)
Read-outs that look alike come from different tables or passages of the source.

Columns and labels:
K+ channel = format: cell-based, mouse
K+ currents = assay: Pharmacological suppression of K+ currents in human iDAN cells; format: cell-based
Method: (§1) Recordings were performed on reprogrammed mouse and human fibroblasts and primary mesencephalic DA neurons. […] Only cells without signs of detachment from the substrate were used for recordings. Cells were perfused continuously with HEPES-buffered saline (HBS) of the following composition (in mM): 140 NaCl, 5 KCl, 2 CaCl2, 2 MgCl2, 15 HEPES, and 25 glucose, pH 7.4. The patch pipette solution contained (in mM): 130 K-gluconate, 10 KCl, 0.5 CaCl2, 15 HEPES, 5 EGTA, 8 NaCl, 2 MgATP, 0.3 Na2GTP, and 10 glucose, pH adjusted to 7.2 with KOH. Action potentials were recorded in the on-cell and the current-clamp whole-cell configuration. A current was injected to have membrane potentials around −60 mV, and step currents from −50 pA to 40 pA were injected to elicit action potentials. Na^+ currents and composite K^+ currents were recorded in the voltage-clamp configuration by delivering voltage steps ranging from −100 mV to +20 mV in cells held at −60 mV. Delayed rectifier K+ currents were activated by 0.5 s voltage steps from −40 mV to +20 mV after a 0.5 s-long step to −40 mV.

[1] = test system: Na+ voltage-gated channels; format: cell-based, mouse
Na+ currents = format: cell-based, human
D2/D3 receptor = format: cell-based, mouse
Method: as §1

Nc1ccncc1 [4-AP, 4-aminopyridine]
effect on outward K+ currents (K+ channel; 4-AP 3 mM, TEA 10 mM, in the presence of TTX, n=4): inhibition of outward currents
effect on K+ currents and action potentials (K+ currents): Suppression

CC[N+](CC)(CC)CC [TEA, tetraethylammonium]
effect on outward K+ currents (K+ channel): inhibition of outward currents

NC1=N[C@H](O)[C@H]2[C@H]3O[C@]4(O)O[C@@H]([C@@H](O)[C@@]2(N1)[C@@H]4O)[C@]3(O)CO [TTX, tetrodotoxin]
block of the fast inward current [1]: complete block
effect on Na+ currents and action potentials (Na+ currents): Suppression

CCCN1CCC[C@@H]2Cc3n[nH]cc3C[C@H]21 [quinpirole]
effect on neuronal firing (D2/D3 receptor): drastically suppressed neuronal firing in 6 of 10 recorded cells
